Measurements from PMC10895674, “First-in-Class Dual EZH2-HSP90 Inhibitor Eliciting Striking Antiglioblastoma Activity In Vitro and In Vivo” (Journal of Medicinal Chemistry, 2024).
Where two headings read alike, the source gives them in different places.

How the values were obtained:
[1] = tested on: Pt3R cells; test: ROS assay (DHR, flow cytometry); assay type: cell-based, human; conditions: 48 h
Method: (§1) Figure 10 Compound 7 triggers ROS production from mitochondria. (A) After treatment for 48 h, cells were stained with the DHR reagent, and the fluorescent signal was estimated by flow cytometry. Treatment concentration of compound 7 was indicated. (B) Protein lysates were subjected to Western blotting using the indicated antibody. (C) After staining with MitoSOX (red) and Hoechst 33342 (blue), cellular signals were photographed and quantified D. Protein lysates were subjected to Western blotting using the indicated antibody.
(§2) Dihydrorhodamine 123 (DHR; Thermo Fisher Scientific, Waltham, MA) was used to label cellular ROS detected by the flow cytometry,[54] and the MitoSOX reagent (Thermo Fisher Scientific) was used to label mitochondrial ROS.[55]

[2] = tested on: Pt3 cells; test: ROS assay (DHR, flow cytometry); assay type: cell-based, human; conditions: 48 h
Method: as §1, §2

[3] = Pharmacokinetics IV and PO; parameters: species or system Rat; conditions: in vivo
Method: Table S1: Pharmacokinetic data of compound 7
Rat IV (dose: 2 mg/kg) Rat PO (dose: 20 mg/kg)
T1/2 CL Vss AUC(0-inf) T1/2 Cmax Tmax AUC(0-inf) F
(hr) (ml/min/kg) (l/kg) (ng/mL*hr) (hr) (ng/ml) (hr) (ng/mL*hr) (%)
Sample Time (hr) Avg. S.D.

[4] = tested on: Pt3R cells; test: Itraq-based proteomics analysis of global protein expression; assay type: cell-based, human; conditions: 2 μM
From the text: Having identified the desired chemical probe 7, we assessed global protein expression using Itraq-based proteomics analysis to estimate whether 7 suppresses HSP90 (Pt3R cell lines). […] This observation is aligned with the results attained with geldanamycin treatment (a well-known HSP90 inhibitor)[49],[50] and confirms the HSP90-suppressive activity of compound 7 in GBM cells.
RNA was isolated using the RNA extracting kit (Zymo Research, Irvine, CA) and subjected to RNA-seq serviced by BIOTOOLS Co., Ltd. (New Taipei City, Taiwan). Cell pellets were collected and subjected to proteomic analysis serviced by BIOTOOLS Co., Ltd. The comparison in gene expression between Pt3 and Pt3R was performed using RNA seq and described previously.[60]

[5] = Rat IV 2 mg/kg, read-out: Drug Conc. Avg.
[6] = Rat PO 20 mg/kg, read-out: Drug Conc. Avg.

SMILES: CCN(c1cc(-c2cccc(N(C)C(=O)c3cc(C(C)C)c(O)cc3O)c2)cc(C(=O)NCc2c(C)cc(C)[nH]c2=O)c1C)C1CCOCC1 [Compound 7, 3′-(2,4-Dihydroxy-5-isopropyl-N-methylbenzamido)-N-((4,6-dimethyl-2-oxo-1,2-dihydropyridin-3-yl)methyl)-5-(ethyl(tetrahydro-2H-pyran-4-yl)amino)-4-methyl-[1,1′-biphenyl]-3-carboxamide]
- ROS level [1]: increased
- ROS level [2]: increased
- concentration at 0.03 hr ([3]; Rat IV 2 mg/kg, 0.03 hr, read-out: Drug Conc. Avg.): 2790 ng/mL
- concentration at 0.08 hr ([3]; Rat IV 2 mg/kg, 0.08 hr, read-out: Drug Conc. Avg.): 929 ng/mL
- concentration at 0.25 hr [3, 5]: 406 ng/mL
- concentration at 0.5 hr [3, 5]: 218 ng/mL
- concentration at 1 hr [3, 5]: 76.6 ng/mL
- concentration at 2 hr [3, 5]: 30.5 ng/mL
- concentration at 4 hr [3, 5]: 5 ng/mL
- concentration at 6 hr [3, 5]: 1.1 ng/mL
- AUC(0-inf) ([3]; Rat IV, dose 2 mg/kg): 470 ± 32 ng·h/mL
- clearance ([3]; Rat IV, dose 2 mg/kg): 81.8 ± 5.8 mL/min/kg
- half-life ([3]; Rat IV, dose 2 mg/kg): 0.8 h
- Vd ([3]; Rat IV, dose 2 mg/kg, read-out: Vss): 3 ± 0.5 L/kg
- bioavailability ([3]; Rat PO 20 mg/kg vs IV 2 mg/kg): 2.3%
- concentration at 0.25 hr [3, 6]: 23 ng/mL
- concentration at 0.5 hr [3, 6]: 11.1 ng/mL
- concentration at 1 hr [3, 6]: 23.8 ng/mL
- concentration at 2 hr [3, 6]: 15.3 ng/mL
- concentration at 4 hr [3, 6]: 18.1 ng/mL
- concentration at 6 hr [3, 6]: 4 ng/mL
- concentration at 8 hr ([3]; Rat PO 20 mg/kg, 8 hr, read-out: Drug Conc. Avg.): 2.9 ng/mL
- AUC(0-inf) ([3]; Rat PO, dose 20 mg/kg): 106 ± 62 ng·h/mL
- Cmax ([3]; Rat PO, dose 20 mg/kg): 23.8 ± 8.9 ng/mL
- Tmax ([3]; Rat PO, dose 20 mg/kg): 1 h
- half-life ([3]; Rat PO, dose 20 mg/kg): 1.8 ± 0.5 h
- C7/DMSO, ANXA5 (P08758) ([4]; protein decreased): 0.406
- C7/DMSO, CORO1C (Q9ULV4) ([4]; protein decreased): 0.410
- C7/DMSO, CYB5B (O43169) ([4]; protein decreased): 0.568
- C7/DMSO, DDX6 (P26196) ([4]; protein decreased): 0.596
- C7/DMSO, DDX39A (O00148) ([4]; protein decreased): 0.515
- C7/DMSO, EIF3I (Q13347) ([4]; protein decreased): 0.624
- C7/DMSO, GNB2 (P62879) ([4]; protein decreased): 0.628
- C7/DMSO, H1–2 (P16403) ([4]; protein decreased): 0.334
- C7/DMSO, H2AZ1 (P0C0S5) ([4]; protein decreased): 0.603
- C7/DMSO, H2BC11 (P06899) ([4]; protein decreased): 0.423
- C7/DMSO, H2BC12 (O60814) ([4]; protein decreased): 0.419
- C7/DMSO, H4C1 (P62805) ([4]; protein decreased): 0.556
- C7/DMSO, HADHB (P55084) ([4]; protein decreased): 0.591
- C7/DMSO, HIST1H2AH (Q96KK5) ([4]; protein decreased): 0.245
- C7/DMSO, HIST2H3A (Q71DI3) ([4]; protein decreased): 0.240
- C7/DMSO, HMGB2 (P26583) ([4]; protein decreased): 0.575
- C7/DMSO, HMGB3 (O15347) ([4]; protein decreased): 0.573
- C7/DMSO, HNRNPA3 (P51991) ([4]; protein decreased): 0.377
- C7/DMSO, ILF3 (Q12906) ([4]; protein decreased): 0.645
- C7/DMSO, MCM3 (P25205) ([4]; protein decreased): 0.635
- C7/DMSO, MCM7 (P33993) ([4]; protein decreased): 0.586
- C7/DMSO, NASP (P49321) ([4]; protein decreased): 0.604
- C7/DMSO, NT5E (P21589) ([4]; protein decreased): 0.446
- C7/DMSO, PA2G4 (Q9UQ80) ([4]; protein decreased): 0.628
- C7/DMSO, PCBP1 (Q15365) ([4]; protein decreased): 0.628
- C7/DMSO, PTGES3 (Q15185) ([4]; protein decreased): 0.589
- C7/DMSO, RACK1 (P63244) ([4]; protein decreased): 0.627
- C7/DMSO, RPL26 (P61254) ([4]; protein decreased): 0.619
- C7/DMSO, RPL35 (P42766) ([4]; protein decreased): 0.629
- C7/DMSO, RPS6 (P62753) ([4]; protein decreased): 0.641
- C7/DMSO, RPS10 (P46783) ([4]; protein decreased): 0.608
- C7/DMSO, S100A13 (Q99584) ([4]; protein decreased): 0.638
- C7/DMSO, SERPINB6 (P35237) ([4]; protein decreased): 0.632
- C7/DMSO, SRSF7 (Q16629) ([4]; protein decreased): 0.605
- C7/DMSO, TAF15 (Q92804) ([4]; protein decreased): 0.609
- C7/DMSO, TNS3 (Q68CZ2) ([4]; protein decreased): 0.582
- C7/DMSO, TUBB4B (P68371) ([4]; protein decreased): 0.564
- C7/DMSO, TXNDC5 (Q8NBS9) ([4]; protein decreased): 0.635
- C7/DMSO, YWHAG (P61981) ([4]; protein decreased): 0.447
- C7/DMSO, ACTB (P60709) ([4]; protein increased): 1.657
- C7/DMSO, ARF3 (P61204) ([4]; protein increased): 1.944
- C7/DMSO, ATP5IF1 (Q9UII2) ([4]; protein increased): 1.646
- C7/DMSO, ATP6 V1E1 (P36543) ([4]; protein increased): 1.599
- C7/DMSO, CLIC1 (O00299) ([4]; protein increased): 2.598
- C7/DMSO, CTNNB1 (P35222) ([4]; protein increased): 1.550
- C7/DMSO, EEF1B2 (P24534) ([4]; protein increased): 1.792
- C7/DMSO, EHD1 (Q9H4M9) ([4]; protein increased): 1.555
- C7/DMSO, GIPC1 (O14908) ([4]; protein increased): 1.699
- C7/DMSO, HK1 (P19367) ([4]; protein increased): 1.921
- C7/DMSO, HSP90AA1 (P07900) ([4]; protein increased): 1.958
- C7/DMSO, HSPA1A (P0DMV8) ([4]; protein increased): 2.843
- C7/DMSO, HSPA4 (P34932) ([4]; protein increased): 1.561
- C7/DMSO, HSPA8 (P11142) ([4]; protein increased): 2.096
- C7/DMSO, HSPB1 (P04792) ([4]; protein increased): 1.661
- C7/DMSO, HSPE1 (P61604) ([4]; protein increased): 1.710
- C7/DMSO, HSPH1 (Q92598) ([4]; protein increased): 1.642
- C7/DMSO, LRPAP1 (P30533) ([4]; protein increased): 1.667
- C7/DMSO, NME1 (P15531) ([4]; protein increased): 3.299
- C7/DMSO, OCIAD2 (Q56VL3) ([4]; protein increased): 2.150
- C7/DMSO, OLA1 (Q9NTK5) ([4]; protein increased): 1.745
- C7/DMSO, P4HA2 (O15460) ([4]; protein increased): 1.588
- C7/DMSO, PSMD3 (O43242) ([4]; protein increased): 1.801
- C7/DMSO, PSMD14 (O00487) ([4]; protein increased): 1.579
- C7/DMSO, S100A10 (P60903) ([4]; protein increased): 1.664
- C7/DMSO, SERPINE1 (P05121) ([4]; protein increased): 4.203
- C7/DMSO, SERPINH1 (P50454) ([4]; protein increased): 2.186
- C7/DMSO, TWF1 (Q12792) ([4]; protein increased): 1.995
- C7/DMSO, ZYX (Q15942) ([4]; protein increased): 1.903
